# Measurements as given in US20090022757A1, “Method for treating photoreceptor cell degeneration” (priority 2007, published 2009).
# Tests used:
# [1] = system: MNU-induced retinal photoreceptor cell degeneration; experiment: Electroretinogram of rats with MNU-induced retinal photoreceptor cell degeneration treated with GLS oil and/or DHA; assay type: in vivo, Sprague Dawley rats; design: a-Wave Amplitude / b-Wave Amplitude: unit not given here; details: MNU 40 mg/kg i.p.
# Protocol: Animals and grouping: One hundred and five 50-day-old Sprague Dawley rats were used in the experiment. Twenty-five rats were selected randomly as the normal control (receiving an excipient via gastric gavage). Eighty rats were used for establishing the photoreceptor cell degeneration model and were treated by intraperitoneal injection with a single dose of MNU at 40 mg/kg. The MNU-injected rats were randomly divided into four experimental groups:
# (1) GLS oil treatment group (receiving GSL oil and an excipient via gastric gavage);
# (2) GLS oil+DHA treatment group (receiving GSL oil, DHA, and an excipient via gastric gavage);
# (3) DHA control group (receiving DHA and an excipient via gastric gavage;
# (4) Model control group (receiving an excipient via gastric gavage).
# The excipient used in this experiment is hydroxypropyl methyl cellulose. The treatment started three days before the administration of MNU (day-3). Each animal in Groups 1-3 received a daily gastric feeding of GSL oil only, GSL oil and DHA (2 mg/kg), or DHA (2 mg/kg) only, in 1 ml 0.5% hydroxypropyl methyl cellulose. Animals in Group 4 received 1 ml 0.5% hydroxypropyl methyl cellulose.
# Electroretinogram examination: The pupils of rats were dilated as described in Example 1. The electroretinogram examinations were conducted under the following conditions:
# A Neuropack II electrophysiological analyzer was employed to measure the visual electrophysiology.
# [2] = system: MNU-induced retinal photoreceptor cell degeneration; experiment: Pathological examination of MNU-induced retinal photoreceptor cell damage in rats treated with GLS oil and/or DHA; details: MNU 40 mg/kg i.p., damage score
# [3] = daily gastric gavage from day -3, day 1
# [4] = daily gastric gavage from day -3, day 3
# [5] = daily gastric gavage from day -3, day 5
# [6] = daily gastric gavage from day -3, day 7
# [7] = daily gastric gavage from day -3, day 10
smiles,measurement,setting,value
"CC/C=C\C/C=C\C/C=C\C/C=C\C/C=C\C/C=C\CCC(=O)O [DHA, Docosahexaenoic acid]",a-Wave Amplitude,[1]; [3],18.43 ± 17.94
same,a-Wave Latent Period,[1]; [3],10.35 ± 9.02
same,b-Wave Amplitude,[1]; [3],56.90 ± 61.16
same,b-Wave Latent Period,[1]; [3],43.92 ± 38.08
same,a-Wave Amplitude,[1]; [4],14.13 ± 15.71
same,a-Wave Latent Period,[1]; [4],8.64 ± 9.91
same,b-Wave Amplitude,[1]; [4],59.43 ± 65.22
same,b-Wave Latent Period,[1]; [4],35.10 ± 37.34
same,a-Wave Amplitude,[1]; [5],10.27 ± 11.15
same,a-Wave Latent Period,[1]; [5],8.30 ± 8.81
same,b-Wave Amplitude,[1]; [5],47.85 ± 52.05
same,b-Wave Latent Period,[1]; [5],34.92 ± 36.97
same,a-Wave Amplitude,[1]; [6],16.61 ± 18.95
same,a-Wave Latent Period,[1]; [6],9.01 ± 9.56
same,b-Wave Amplitude,[1]; [6],53.93 ± 58.06
same,b-Wave Latent Period,[1]; [6],36.24 ± 38.45
same,a-Wave Amplitude,[1]; [7],19.70 ± 17.97
same,a-Wave Latent Period,[1]; [7],10.42 ± 9.10
same,b-Wave Amplitude,[1]; [7],64.71 ± 57.60
same,b-Wave Latent Period,[1]; [7],43.23 ± 37.88
same,Number of Eyes with extinguished electroretinogram,"[1]; n = 10, day 3",5
same,Number of Eyes with extinguished electroretinogram,"[1]; n = 10, day 5",5
same,Number of Eyes with extinguished electroretinogram,"[1]; n = 10, day 7",5
same,Number of Eyes with extinguished electroretinogram,"[1]; n = 10, day 10",4
same,Number of Eyes with extinguished electroretinogram,"[1]; n = 10, day 11",4
same,The Damage Degree of the Retinal Photoreceptor Cell Pathology,[2]; day 1,1.40 ± 0.52
same,The Damage Degree of the Retinal Photoreceptor Cell Pathology,[2]; day 3,2.2 ± 1.32
same,The Damage Degree of the Retinal Photoreceptor Cell Pathology,[2]; day 5,2.9 ± 2.85
same,The Damage Degree of the Retinal Photoreceptor Cell Pathology,[2]; day 7,2.80 ± 2.97
same,The Damage Degree of the Retinal Photoreceptor Cell Pathology,[2]; day 10,2.60 ± 2.95
